As usually defined, the GI50 is the concentration at which growth is held to half of that of the control.

Holding throughout (type): cell-based
In test [1] the test system is Ba/F3 cells expressing EGFR-wt. Kind of test: Growth inhibition (GI50) of Ba/F3 cells expressing EGFR-wt, Celltiter glo. The note with it: Mus musculus, BaF3, 72 h. The essentials: (§1)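 Viability read by CellTiter-Glo after 72 h compound exposure (37 °C, 5% CO2) of variant-expressing Ba/F3 cells plated at 100,000 cells/ml. Dosing 4 h post-seeding; 10-pt 4-fold series from 2 mM stock; 0.5% DMSO. GI50 = molar concentration (μM) giving half-maximal growth inhibition.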

The subject of test [2] is Ba/F3 cells expressing del19/T790M/C797S (EGFR-DTC). In words: Growth inhibition (GI50) of Ba/F3 cells expressing del19/T790M/C797S (EGFR-DTC), Celltiter glo. The conditions noted are these: Mus musculus, BaF3, 72 h. The essentials:
as §1
(ATP-based viability assays read luminescence as a measure of living cells.)

Test [3] relates to Ba/F3 cells expressing L858R/T790M/C797S (EGFR-LTC). Kind of test: Growth inhibition (GI50) of Ba/F3 cells expressing L858R/T790M/C797S (EGFR-LTC), Celltiter glo. The conditions noted are these: Mus musculus, BaF3, 72 h. The essentials:
as §1

The subject of test [4] is Ba/F3 cells expressing del19/T790M (EGFR-DT). In words: Growth inhibition (GI50) of Ba/F3 cells expressing del19/T790M (EGFR-DT), Celltiter glo. The note with it: Mus musculus, BaF3, 72 h. In outline: as §1
Test [5] has as its system Ba/F3 cells expressing L858R/T790M (EGFR-LT). In words: Growth inhibition (GI50) of Ba/F3 cells expressing L858R/T790M (EGFR-LT), Celltiter glo. The conditions noted are these: Mus musculus, BaF3, 72 h. In outline:
as §1

In test [6] the test system is parental Ba/F3 cell line. Kind of test: Growth inhibition (GI50) of the parental Ba/F3 cell line (not introduced with EGFR variants), Celltiter glo. The conditions noted are these: Mus musculus, BaF3, 72 h, parental Ba/F3 cells. In outline: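 Viable cell count by CellTiter-Glo after 72 h at 37 °C gave GI50 values (μM, 50% growth inhibition). Cells lacking EGFR variants were seeded at 100,000 cells/ml and dosed 4 h later with 4-fold serial dilutions from a 2 mM stock, 0.5% DMSO.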

For `COc1cc(N2CCC(N3CCN(C)CC3)CC2)c(Cl)cc1Nc1ncc(Cl)c(Nc2cc(Cl)c(F)cc2NS(C)(=O)=O)n1` [Example 181, N-(4-chloro-2-((5-chloro-2-((5-chloro-2-methoxy-4-(4-(4-methylpiperazin-1-yl)piperidin-1-yl)phenyl)amino)pyrimidin-4-yl)amino)-5-fluorophenyl)methanesulfonamide], the GI50 fell in the range of 500 to 2000 nM in test [1]; 100 to 500 nM in test [2]; 25 to 100 nM in test [3]; 25 to 100 nM in test [4]; 25 to 100 nM in test [5]; 2000 to 10000 nM in test [6].

As for `COc1cc(N2CCC(N3CCCN(C)CC3)CC2)c(Cl)cc1Nc1ncc(Cl)c(Nc2cc3c(cc2NS(C)(=O)=O)CCO3)n1` [Example 174, N-(6-((5-chloro-2-((5-chloro-2-methoxy-4-(4-(4-methyl-1,4-diazepan-1-yl)piperidin-1-yl)phenyl)amino)pyrimidin-4-yl)amino)-2,3-dihydrobenzofuran-5-yl)methanesulfonamide], the GI50 in test [1] fell in the range of 100 to 500 nM; in test [2], 1 to 25 nM; in test [3], 25 to 100 nM; in test [4] it was 1 to 25 nM; in test [5], 1 to 25 nM; in test [6] it was 500 to 2000 nM.

`COc1nc(N2CCCN(C)CC2)ccc1Nc1ncc(Br)c(Nc2cc3c(cc2NS(C)(=O)=O)CCO3)n1` [Example 238, N-(6-((5-bromo-2-((2-methoxy-6-(4-methyl-1,4-diazepan-1-yl)pyridin-3-yl)amino)pyrimidin-4-yl)amino)-2,3-dihydrobenzofuran-5-yl)methanesulfonamide]: the GI50 in test [1] is 2000 to 10000 nM; in test [2] it was 2000 to 10000 nM; in test [3] it was 100 to 500 nM; in test [4] it was 2000 to 10000 nM; in test [5] it was 100 to 500 nM; in test [6], 2000 to 10000 nM.

With `Cc1cc(Nc2ncc(Cl)c(Nc3cc4c(cc3NS(C)(=O)=O)CCO4)n2)c(Cl)cc1N1CCC(N2CCCC(N(C)C)C2)CC1` (stereo not drawn) [Example 197, N-(6-((5-chloro-2-((2-chloro-4-(3-(dimethylamino)-[1,4′-bipiperidin]-1′-yl)-5-methylphenyl)amino)pyrimidin-4-yl)amino)-2,3-dihydrobenzofuran-5-yl)methanesulfonamide], the GI50 in test [1] lay within 100 to 500 nM; in test [2], 25 to 100 nM; in test [3], 100 to 500 nM; in test [4], 1 to 25 nM; in test [5], 100 to 500 nM; in test [6], 2000 to 10000 nM.

With `COc1ccc(NS(C)(=O)=O)c(Nc2nc(Nc3cc(C)c(N4CCC(N5CCCC(N(C)C)C5)CC4)cc3Cl)ncc2Cl)c1` (stereo not drawn) [Example 236, N-(2-((5-chloro-2-((2-chloro-4-(3-(dimethylamino)-[1,4′-bipiperidin]-1′-yl)-5-methylphenyl)amino)pyrimidin-4-yl)amino)-4-methoxyphenyl)methanesulfonamide], the GI50 in test [1] fell in the range of 2000 to 10000 nM; in test [2], 100 to 500 nM; in test [3] it was 100 to 500 nM; in test [4] it was 100 to 500 nM; in test [5], 100 to 500 nM; in test [6], 2000 to 10000 nM.

Regarding `COc1ccc(NS(C)(=O)=O)c(Nc2nc(Nc3cc(C)c(N4CCC(N5CCN(C)CC5)CC4)cc3OC)ncc2Cl)c1` [Example 199, N-(2-((5-chloro-2-((2-methoxy-5-methyl-4-(4-(4-methylpiperazin-1-yl)piperidin-1-yl)phenyl)amino)pyrimidin-4-yl)amino)-4-methoxyphenyl)methanesulfonamide], the GI50 in test [1] lay within 100 to 500 nM; in test [2], 1 to 25 nM; in test [3], 1 to 25 nM; in test [4] it was 1 to 25 nM; in test [5] it was 25 to 100 nM; in test [6], 100 to 500 nM.

Turning to `COc1cc(N2CCC(N3CCN(C)CC3)CC2)c(Cl)cc1Nc1ncc(Br)c(Nc2ccccc2N=S(C)(C)=O)n1` [Example 143], the GI50 in test [1] fell in the range of 100 to 500 nM; in test [2], 100 to 500 nM; in test [3], 100 to 500 nM; in test [4] it was 500 to 2000 nM; in test [5] it was 500 to 2000 nM; in test [6], 100 to 500 nM.

For `COc1cc(N2CCC(N3CCN(C)CC3)CC2)c(Cl)cc1Nc1ncc(Cl)c(Nc2cc(C(C)C)ccc2NS(C)(=O)=O)n1` [Example 161, N-(2-((5-chloro-2-((5-chloro-2-methoxy-4-(4-(4-methylpiperazin-1-yl)piperidin-1-yl)phenyl)amino)pyrimidin-4-yl)amino)-4-isopropylphenyl)methanesulfonamide], the GI50 in test [1] lay in the range of 2000 to 10000 nM; in test [2], 100 to 500 nM; in test [3], 500 to 2000 nM; in test [4], 100 to 500 nM; in test [5], 500 to 2000 nM; in test [6] it was 2000 to 10000 nM.

In the case of `COc1cc(N2CCC(N3CCN(C)CC3)CC2)c(C)cc1Nc1nnc(Cl)c(Nc2ccc(F)cc2NS(C)(=O)=O)n1` [Example 164, N-(2-((6-chloro-3-((2-methoxy-5-methyl-4-(4-(4-methylpiperazin-1-yl)piperidin-1-yl)phenyl)amino)-1,2,4-triazin-5-yl)amino)-5-fluorophenyl)methanesulfonamide], the GI50 is 2000 to 10000 nM in test [1]; 100 to 500 nM in test [2]; 2000 to 10000 nM in test [3]; 2000 to 10000 nM in test [4]; 2000 to 10000 nM in test [5]; more than 10000 nM in test [6].

On to `COc1ccc(NS(C)(=O)=O)c(Nc2nc(Nc3cc(Cl)c(N4CCC(N5CCCC(N(C)C)C5)CC4)cc3OC)ncc2Cl)c1` (stereo not drawn) [Example 237, N-(2-((5-chloro-2-((5-chloro-4-(3-(dimethylamino)-[1,4′-bipiperidin]-1′-yl)-2-methoxyphenyl)amino)pyrimidin-4-yl)amino)-4-methoxyphenyl)methanesulfonamide], for which the GI50 in test [1] lay in the range of 500 to 2000 nM; in test [2], 100 to 500 nM; in test [3], 1 to 25 nM; in test [4], 100 to 500 nM; in test [5] it was 1 to 25 nM; in test [6] it was 2000 to 10000 nM.

With `CN1CCN(C2CCN(c3ccc(Nc4ncc(Br)c(Nc5cc6c(cc5NS(C)(=O)=O)CCO6)n4)cc3F)CC2)CC1` [Example 244, N-(6-((5-bromo-2-((3-fluoro-4-(4-(4-methylpiperazin-1-yl)piperidin-1-yl)phenyl)amino)pyrimidin-4-yl)amino)-2,3-dihydrobenzofuran-5-yl)methanesulfonamide], the GI50 lay within 25 to 100 nM in test [1]; 25 to 100 nM in test [2]; 1 to 25 nM in test [3]; 1 to 25 nM in test [4]; 1 to 25 nM in test [5]; 100 to 500 nM in test [6].

With `COc1cc(N2CCC(N3CCN(C)CC3)CC2)c(Cl)cc1Nc1ncc(Br)c(Nc2cc(Cl)ccc2NS(C)(=O)=O)n1` [Example 88, N-(2-((5-bromo-2-((5-chloro-2-methoxy-4-(4-(4-methylpiperazin-1-yl)piperidin-1-yl)phenyl)amino)pyrimidin-4-yl)amino)-4-chlorophenyl)methanesulfonamide], the concentration for 50% growth inhibition (GI50) was in the range of 100 to 500 nM in test [1]; 1 to 25 nM in test [2]; 1 to 25 nM in test [3]; 1 to 25 nM in test [4]; 1 to 25 nM in test [5]; 500 to 2000 nM in test [6].
